Data published in patent US10072026B2, “Crystalline form of 3-((1R,3s,5S)-3-((7-((5-methyl-1H-pyrazol-3-yl)amino)-1,6-naphthyridin-5-yl)amino)-8-azabicyclo[3.2.1]octan-8-yl)propanenitrile” (priority 2015, dated 2018).
Read-outs that look alike come from different tables or passages of the source.

Assays:
[1] = system: IL-4 induced STAT6 phosphorylation in THP-1 human monocytic cells; test: Cellular JAK potency assay, THP-1
JAK3 = JAK3 (Homo sapiens (Human), UniProt P52333); test: LanthaScreen JAK biochemical assay (JAK3)
JAK1 = JAK1 (Homo sapiens (Human), UniProt P23458); test: LanthaScreen JAK biochemical assay (JAK1)
JAK1, sequence (P23458 whole entry): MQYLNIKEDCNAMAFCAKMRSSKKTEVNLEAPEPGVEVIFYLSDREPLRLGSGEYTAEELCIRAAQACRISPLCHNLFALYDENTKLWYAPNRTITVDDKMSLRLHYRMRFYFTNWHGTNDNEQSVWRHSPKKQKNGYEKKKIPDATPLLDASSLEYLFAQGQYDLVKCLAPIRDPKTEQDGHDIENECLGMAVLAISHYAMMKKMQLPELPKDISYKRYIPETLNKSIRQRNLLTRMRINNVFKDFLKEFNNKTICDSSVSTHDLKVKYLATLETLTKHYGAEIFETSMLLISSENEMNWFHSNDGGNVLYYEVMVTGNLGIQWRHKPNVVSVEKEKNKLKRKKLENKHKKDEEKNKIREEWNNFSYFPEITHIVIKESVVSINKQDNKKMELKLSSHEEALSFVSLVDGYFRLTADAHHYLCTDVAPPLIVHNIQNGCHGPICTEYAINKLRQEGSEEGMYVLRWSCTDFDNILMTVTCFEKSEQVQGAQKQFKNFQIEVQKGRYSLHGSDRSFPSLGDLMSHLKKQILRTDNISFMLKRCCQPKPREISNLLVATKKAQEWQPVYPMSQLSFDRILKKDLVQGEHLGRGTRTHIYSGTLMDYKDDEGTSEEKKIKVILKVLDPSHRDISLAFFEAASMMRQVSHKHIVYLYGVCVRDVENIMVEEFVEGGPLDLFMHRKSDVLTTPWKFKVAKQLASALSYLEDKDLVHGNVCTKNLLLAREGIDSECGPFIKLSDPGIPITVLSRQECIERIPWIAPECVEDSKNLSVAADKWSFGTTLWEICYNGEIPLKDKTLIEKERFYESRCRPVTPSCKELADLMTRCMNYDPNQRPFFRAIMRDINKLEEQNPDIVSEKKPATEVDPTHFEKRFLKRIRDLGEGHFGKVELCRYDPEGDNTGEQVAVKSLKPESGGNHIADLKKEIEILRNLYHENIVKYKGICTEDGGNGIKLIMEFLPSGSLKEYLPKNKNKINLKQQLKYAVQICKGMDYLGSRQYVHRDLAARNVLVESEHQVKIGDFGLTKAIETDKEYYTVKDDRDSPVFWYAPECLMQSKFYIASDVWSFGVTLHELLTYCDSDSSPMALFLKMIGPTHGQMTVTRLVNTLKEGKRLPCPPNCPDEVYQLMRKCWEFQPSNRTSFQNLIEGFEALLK

Tyk2 = Tyk2 (Homo sapiens (Human), UniProt P29597); test: LanthaScreen JAK biochemical assay (Tyk2)
Tyk2, sequence (P29597 whole entry): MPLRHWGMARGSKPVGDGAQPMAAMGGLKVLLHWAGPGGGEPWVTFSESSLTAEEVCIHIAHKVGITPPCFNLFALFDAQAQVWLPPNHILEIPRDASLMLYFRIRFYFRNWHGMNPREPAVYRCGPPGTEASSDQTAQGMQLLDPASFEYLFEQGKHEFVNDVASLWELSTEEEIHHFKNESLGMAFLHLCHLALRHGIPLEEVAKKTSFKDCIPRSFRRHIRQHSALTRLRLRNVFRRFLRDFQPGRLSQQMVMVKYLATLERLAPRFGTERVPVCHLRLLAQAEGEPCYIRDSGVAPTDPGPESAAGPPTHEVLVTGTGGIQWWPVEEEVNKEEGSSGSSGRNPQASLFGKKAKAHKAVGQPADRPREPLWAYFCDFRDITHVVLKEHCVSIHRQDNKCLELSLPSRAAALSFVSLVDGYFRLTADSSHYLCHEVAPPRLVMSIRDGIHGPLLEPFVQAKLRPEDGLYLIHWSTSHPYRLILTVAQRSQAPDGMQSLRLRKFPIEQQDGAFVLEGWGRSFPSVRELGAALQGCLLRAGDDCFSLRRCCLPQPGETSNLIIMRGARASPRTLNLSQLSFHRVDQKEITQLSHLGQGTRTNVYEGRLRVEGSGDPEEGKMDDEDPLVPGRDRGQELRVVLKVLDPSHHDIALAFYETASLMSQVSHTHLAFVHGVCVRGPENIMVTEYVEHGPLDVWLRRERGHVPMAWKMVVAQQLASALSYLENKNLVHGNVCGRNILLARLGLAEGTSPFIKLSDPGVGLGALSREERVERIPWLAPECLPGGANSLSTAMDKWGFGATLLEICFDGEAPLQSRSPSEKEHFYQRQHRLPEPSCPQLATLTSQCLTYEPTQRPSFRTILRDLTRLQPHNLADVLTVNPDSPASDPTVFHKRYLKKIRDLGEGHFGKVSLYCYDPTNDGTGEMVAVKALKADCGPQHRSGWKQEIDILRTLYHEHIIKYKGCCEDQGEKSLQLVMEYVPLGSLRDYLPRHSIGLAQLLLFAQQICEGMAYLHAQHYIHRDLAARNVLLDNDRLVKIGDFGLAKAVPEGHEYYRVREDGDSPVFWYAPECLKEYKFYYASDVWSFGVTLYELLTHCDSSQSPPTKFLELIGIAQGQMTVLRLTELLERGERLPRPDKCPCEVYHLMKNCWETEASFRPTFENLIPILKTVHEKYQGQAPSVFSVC

[2] = system: IL-13 induced STAT6 phosphorylation in BEAS-2B human lung epithelial cells; test: AlphaScreen cellular JAK potency assay, BEAS-2B
JAK2 = JAK2 (Homo sapiens (Human), UniProt O60674); test: LanthaScreen JAK biochemical assay (JAK2)
JAK2, sequence (O60674 whole entry): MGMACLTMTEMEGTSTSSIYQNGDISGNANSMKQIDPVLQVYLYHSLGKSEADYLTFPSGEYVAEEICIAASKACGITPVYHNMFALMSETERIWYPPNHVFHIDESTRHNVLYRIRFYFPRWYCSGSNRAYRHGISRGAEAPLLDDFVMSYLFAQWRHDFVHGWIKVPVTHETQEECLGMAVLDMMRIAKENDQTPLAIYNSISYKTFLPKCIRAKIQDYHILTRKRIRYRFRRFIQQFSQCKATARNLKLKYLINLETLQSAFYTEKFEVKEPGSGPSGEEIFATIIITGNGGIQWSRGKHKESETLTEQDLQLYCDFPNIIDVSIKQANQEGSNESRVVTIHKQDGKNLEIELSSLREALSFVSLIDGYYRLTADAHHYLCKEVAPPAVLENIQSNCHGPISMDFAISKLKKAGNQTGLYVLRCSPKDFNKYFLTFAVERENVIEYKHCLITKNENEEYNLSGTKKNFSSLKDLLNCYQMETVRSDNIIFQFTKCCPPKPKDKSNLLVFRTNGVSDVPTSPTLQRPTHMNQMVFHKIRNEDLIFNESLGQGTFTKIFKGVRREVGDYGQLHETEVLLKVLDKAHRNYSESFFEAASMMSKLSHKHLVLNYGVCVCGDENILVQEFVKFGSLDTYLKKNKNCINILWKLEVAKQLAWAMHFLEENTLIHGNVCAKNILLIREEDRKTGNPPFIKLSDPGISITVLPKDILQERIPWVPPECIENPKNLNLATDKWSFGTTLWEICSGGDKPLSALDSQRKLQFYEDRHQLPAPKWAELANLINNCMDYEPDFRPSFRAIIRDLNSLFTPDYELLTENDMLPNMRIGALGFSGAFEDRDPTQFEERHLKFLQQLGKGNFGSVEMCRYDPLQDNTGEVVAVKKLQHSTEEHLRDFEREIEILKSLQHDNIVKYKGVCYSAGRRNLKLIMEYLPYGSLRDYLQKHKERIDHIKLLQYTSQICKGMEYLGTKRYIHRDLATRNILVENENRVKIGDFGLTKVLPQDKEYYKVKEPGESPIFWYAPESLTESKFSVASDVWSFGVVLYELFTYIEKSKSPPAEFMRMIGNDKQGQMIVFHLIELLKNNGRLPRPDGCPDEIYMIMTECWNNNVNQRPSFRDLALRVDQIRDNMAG

[3] = IL-4 induced STAT6 phosphorylation, THP-1 cells
[4] = Homo sapiens, THP-1, read-out: THP-1 IL4 pIC50 (converted)
[5] = Homo sapiens, BEAS-2B, read-out: BEAS2B pIC50 (converted)
[6] = IL-13 induced STAT6 phosphorylation, BEAS-2B cells
[7] = read-out: JAK 1 (pKi) (converted)
[8] = read-out: Tyk 2 (pKi) (converted)
[9] = read-out: JAK 2 (pKi) (converted)
[10] = BEAS-2B cells, IL-13 induced STAT6 phosphorylation
[11] = THP-1 cells, IL-4 induced STAT6 phosphorylation

Cc1cc(Nc2cc3ncccc3c(N[C@@H]3C[C@H]4CC[C@@H](C3)N4CC(=O)N(C)C)n2)n[nH]1 [Example 1-8]
THP-1 IL4 pIC50 [1, 3]: C (C represents a pEC50 value<6.7 (EC50>200 nM))
JAK 3 (pKi) (JAK3): C (C represents a pKi value between 7 and 9 (Ki between 100 nM and 1 nM))
JAK 1 (pKi) (JAK1): B (B represents a pKi value between 9 and 10 (Ki between 1 nM and 0.1 nM))

Cc1cc(Nc2cc3ncccc3c(N[C@@H]3C[C@H]4CC[C@@H](C3)N4CC(F)(F)F)n2)n[nH]1 [Example 1-14]
IC50 [1, 4]: < 31.6 nM
Ki (Tyk2): 0.1 to 1 nM
IC50 [2, 5]: < 31.6 nM
Ki (JAK1): 0.1 to 1 nM
Ki (JAK2): 0.1 to 1 nM

CCC(CC#N)N1[C@@H]2CC[C@H]1C[C@H](Nc1nc(Nc3cc(C)[nH]n3)cc3ncccc13)C2 (stereo partly drawn) [Example 1-22]
THP-1 IL4 pIC50 [1, 3]: B (B represents a pEC50 value between 6.7 and 7.5 (EC50 between 200 nM and 32 nM))
Tyk 2 (pKi) (Tyk2): B (B represents a pKi value between 9 and 10 (Ki between 1 nM and 0.1 nM))
BEAS2B pIC50 [2, 6]: A (A represents a pEC50 value≥7.5 (EC50≤32 nM))
JAK 1 (pKi) (JAK1): B (B represents a pKi value between 9 and 10 (Ki between 1 nM and 0.1 nM))
JAK 2 (pKi) (JAK2): B (B represents a pKi value between 9 and 10 (Ki between 1 nM and 0.1 nM))

Cc1cc(Nc2cc3ncccc3c(N[C@@H]3C[C@H]4CC[C@@H](C3)N4C3(CC#N)COC3)n2)n[nH]1 [Example 1-25]
IC50 [1, 4]: < 31.6 nM
Ki (Tyk2): 0.1 to 1 nM
IC50 [2, 5]: < 31.6 nM
Ki (JAK1; [7]): 0.1 to 1 nM

Cc1cc(Nc2cc3ncccc3c(N[C@@H]3C[C@H]4CCC[C@@H](C3)N4Cc3ccncc3C#N)n2)n[nH]1 [Example 1-56]
THP-1 IL4 pIC50 [1, 3]: A (A represents a pEC50 value≥7.5 (EC50≤32 nM))
Tyk 2 (pKi) (Tyk2): B (B represents a pKi value between 9 and 10 (Ki between 1 nM and 0.1 nM))
BEAS2B pIC50 [2, 6]: A (A represents a pEC50 value≥7.5 (EC50≤32 nM))
JAK 1 (pKi) (JAK1): B (B represents a pKi value between 9 and 10 (Ki between 1 nM and 0.1 nM))
JAK 2 (pKi) (JAK2): B (B represents a pKi value between 9 and 10 (Ki between 1 nM and 0.1 nM))

Cc1cc(Nc2cc3ncccc3c(N[C@@H]3C[C@H]4CCC[C@@H](C3)N4C(=O)CCCC#N)n2)n[nH]1 [Example 2-27]
Tyk 2 (pKi) (Tyk2): B (B represents a pKi value between 9 and 10 (Ki between 1 nM and 0.1 nM))
BEAS2B pIC50 [2, 6]: B (B represents a pEC50 value between 6.7 and 7.5 (EC50 between 200 nM and 32 nM))
JAK 1 (pKi) (JAK1): B (B represents a pKi value between 9 and 10 (Ki between 1 nM and 0.1 nM))
JAK 2 (pKi) (JAK2): B (B represents a pKi value between 9 and 10 (Ki between 1 nM and 0.1 nM))

Cc1cc(Nc2cc3ncccc3c(N[C@@H]3C[C@H]4CCC[C@@H](C3)N4C(=O)C(C)CC#N)n2)n[nH]1 (stereo partly drawn) [Example 2-29]
Tyk 2 (pKi) (Tyk2): B (B represents a pKi value between 9 and 10 (Ki between 1 nM and 0.1 nM))
BEAS2B pIC50 [2, 6]: B (B represents a pEC50 value between 6.7 and 7.5 (EC50 between 200 nM and 32 nM))
JAK 1 (pKi) (JAK1): B (B represents a pKi value between 9 and 10 (Ki between 1 nM and 0.1 nM))
JAK 2 (pKi) (JAK2): B (B represents a pKi value between 9 and 10 (Ki between 1 nM and 0.1 nM))

COc1ccc2c(N[C@@H]3C[C@H]4CC[C@@H](C3)N4CC(F)(F)F)nc(Nc3cc(C)[nH]n3)cc2n1 [Example 5-1]
IC50 [1, 4]: < 31.6 nM
Ki (Tyk2; [8]): 0.1 to 1 nM
IC50 [2, 5]: < 31.6 nM
Ki (JAK1; [7]): 0.1 to 1 nM
Ki (JAK2; [9]): 0.1 to 1 nM

COc1ccc2c(N[C@@H]3C[C@H]4CC[C@@H](C3)N4CCC#N)nc(Nc3cc(C)[nH]n3)cc2n1 [Example 5-8]
THP-1 IL4 pIC50 [1, 3]: A (A represents a pEC50 value≥7.5 (EC50≤32 nM))
Tyk 2 (pKi) (Tyk2): B (B represents a pKi value between 9 and 10 (Ki between 1 nM and 0.1 nM))
BEAS2B pIC50 [2, 6]: A (A represents a pEC50 value≥7.5 (EC50≤32 nM))
JAK 1 (pKi) (JAK1): B (B represents a pKi value between 9 and 10 (Ki between 1 nM and 0.1 nM))
JAK 2 (pKi) (JAK2): B (B represents a pKi value between 9 and 10 (Ki between 1 nM and 0.1 nM))

COc1ccc2c(N[C@@H]3C[C@H]4CC[C@@H](C3)N4S(C)(=O)=O)nc(Nc3cc(C)[nH]n3)cc2n1 [Example 5-9]
IC50 [1, 4]: < 31.6 nM
Ki (Tyk2; [8]): 0.1 to 1 nM
IC50 [2, 5]: < 31.6 nM
Ki (JAK1; [7]): 0.1 to 1 nM
Ki (JAK2; [9]): 0.1 to 1 nM

Cc1cc(Nc2cc3nc(CN4CCOCC4)ccc3c(N[C@@H]3C[C@H]4CC[C@@H](C3)N4S(=O)(=O)c3cncc(F)c3)n2)n[nH]1 [Example 5-20]
IC50 [1, 4]: < 31.6 nM
Ki (Tyk2; [8]): 0.1 to 1 nM
IC50 [2, 5]: 31.6 to 200 nM
Ki (JAK1; [7]): 0.1 to 1 nM
Ki (JAK2; [9]): 0.1 to 1 nM

Cc1cc(Nc2cc3nc(CN4CCN(C)CC4)ccc3c(N[C@@H]3C[C@H]4CC[C@@H](C3)N4CCC#N)n2)n[nH]1 [Example 5-37]
THP-1 IL4 pIC50 [1, 3]: B (B represents a pEC50 value between 6.7 and 7.5 (EC50 between 200 nM and 32 nM))
JAK 3 (pKi) (JAK3): B (B represents a pKi value between 9 and 10 (Ki between 1 nM and 0.1 nM))

Cc1cc(Nc2cc3nc(CN4CCN(C)CC4)ccc3c(N[C@@H]3C[C@H]4CC[C@@H](C3)N4CC(C)C)n2)n[nH]1 [Example 5-38]
JAK 3 (pKi) (JAK3): C (C represents a pKi value between 7 and 9 (Ki between 100 nM and 1 nM))

Cc1cnc2cc(Nc3cc(C)[nH]n3)nc(N[C@@H]3C[C@H]4CC[C@@H](C3)N4S(=O)(=O)N3CC(C#N)C3)c2c1 [Example 6-4]
IC50 [1, 4]: < 31.6 nM
Ki (Tyk2; [8]): 0.1 to 1 nM
IC50 [2, 5]: < 31.6 nM
Ki (JAK1; [7]): 0.1 to 1 nM

COc1cnc2cc(Nc3cc(C)[nH]n3)nc(N[C@@H]3C[C@H]4CC[C@@H](C3)N4S(=O)(=O)N3CC(C#N)C3)c2c1 [Example 6-20]
Ki (Tyk2; [8]): 0.1 to 1 nM
IC50 [2, 5]: 31.6 to 200 nM
Ki (JAK1; [7]): 0.1 to 1 nM
Ki (JAK2): 0.1 to 1 nM

COc1cnc2cc(Nc3cc(C)[nH]n3)nc(N[C@@H]3C[C@H]4CC[C@@H](C3)N4S(=O)(=O)CCCC#N)c2c1 [Example 6-21]
Tyk 2 (pKi) (Tyk2): B (B represents a pKi value between 9 and 10 (Ki between 1 nM and 0.1 nM))
BEAS2B pIC50 [2, 10]: B (B represents a pEC50 value between 6.7 and 7.5 (EC50 between 200 nM and 32 nM))
JAK 1 (pKi) (JAK1): B (B represents a pKi value between 9 and 10 (Ki between 1 nM and 0.1 nM))
JAK 2 (pKi) (JAK2): B (B represents a pKi value between 9 and 10 (Ki between 1 nM and 0.1 nM))

COc1cnc2cc(Nc3cc(C)[nH]n3)nc(N[C@@H]3C[C@H]4CCC[C@@H](C3)N4S(C)(=O)=O)c2c1 [Example 6-29]
THP-1 IL4 pIC50 [1, 11]: A (A represents a pEC50 value≥7.5 (EC50≤32 nM))
Tyk 2 (pKi) (Tyk2): B (B represents a pKi value between 9 and 10 (Ki between 1 nM and 0.1 nM))
BEAS2B pIC50 [2, 10]: A (A represents a pEC50 value≥7.5 (EC50≤32 nM))
JAK 1 (pKi) (JAK1): B (B represents a pKi value between 9 and 10 (Ki between 1 nM and 0.1 nM))
JAK 2 (pKi) (JAK2): B (B represents a pKi value between 9 and 10 (Ki between 1 nM and 0.1 nM))

COc1cnc2cc(Nc3cc(C)[nH]n3)nc(N[C@@H]3C[C@H]4CCC[C@@H](C3)N4CCC#N)c2c1 [Example 6-31]
THP-1 IL4 pIC50 [1, 11]: A (A represents a pEC50 value≥7.5 (EC50≤32 nM))
Tyk 2 (pKi) (Tyk2): B (B represents a pKi value between 9 and 10 (Ki between 1 nM and 0.1 nM))
BEAS2B pIC50 [2, 10]: A (A represents a pEC50 value≥7.5 (EC50≤32 nM))
JAK 1 (pKi) (JAK1): B (B represents a pKi value between 9 and 10 (Ki between 1 nM and 0.1 nM))
JAK 2 (pKi) (JAK2): B (B represents a pKi value between 9 and 10 (Ki between 1 nM and 0.1 nM))

Cc1cc(Nc2cc3ncc(S(C)(=O)=O)cc3c(N[C@@H]3C[C@H]4CC[C@@H](C3)N4CCC(F)(F)F)n2)n[nH]1 [Example 6-56]
THP-1 IL4 pIC50 [1, 11]: B (B represents a pEC50 value between 6.7 and 7.5 (EC50 between 200 nM and 32 nM))
Tyk 2 (pKi) (Tyk2): B (B represents a pKi value between 9 and 10 (Ki between 1 nM and 0.1 nM))
BEAS2B pIC50 [2, 10]: B (B represents a pEC50 value between 6.7 and 7.5 (EC50 between 200 nM and 32 nM))
JAK 1 (pKi) (JAK1): B (B represents a pKi value between 9 and 10 (Ki between 1 nM and 0.1 nM))
JAK 2 (pKi) (JAK2): A (A represents a pKi value≥10 (Ki≤0.1 nM))

Cc1cc(Nc2nc(N[C@@H]3C[C@H]4CC[C@@H](C3)N4C(=O)CN(C)C)c3cccnc3c2F)n[nH]1 [Example 8-7]
THP-1 IL4 pIC50 [1, 11]: C (C represents a pEC50 value<6.7 (EC50>200 nM))
JAK 3 (pKi) (JAK3): C (C represents a pKi value between 7 and 9 (Ki between 100 nM and 1 nM))

Cc1cnc2c(F)c(Nc3cc(C)[nH]n3)nc(N[C@@H]3C[C@H]4CCC[C@@H](C3)N4S(=O)(=O)N3CC(C#N)C3)c2c1 [Example 8-23]
THP-1 IL4 pIC50 [1, 11]: B (B represents a pEC50 value between 6.7 and 7.5 (EC50 between 200 nM and 32 nM))
Tyk 2 (pKi) (Tyk2): B (B represents a pKi value between 9 and 10 (Ki between 1 nM and 0.1 nM))
BEAS2B pIC50 [2, 10]: B (B represents a pEC50 value between 6.7 and 7.5 (EC50 between 200 nM and 32 nM))
JAK 1 (pKi) (JAK1): B (B represents a pKi value between 9 and 10 (Ki between 1 nM and 0.1 nM))
JAK 2 (pKi) (JAK2): A (A represents a pKi value≥10 (Ki≤0.1 nM))
